According to patent publication US7939639B2, “Functional role of adrenomedullin (AM) and the gene related product (PAMP) in human pathology and physiology” (The United States of America as represented by the …, priority 1995, dated 2011):
Where “and” joins values, the source holds several entries; their conditions need not be identical. Identical values can stand only once. Entries after “also recorded” stand apart in the source; their conditions may differ.

How the values were obtained:
MCF-7 = assay: MTT growth assay, MCF-7; format: cell-based, human
Description: i. Growth Assays: MTT techniques were performed as previously described (Nakanishi, Y. F., et al., Exper. Cell Biol. 56:74-85 (1988)). In brief, a single cell suspension of 2×10^5 cells/ml (50 μl/well) is seeded into 96-well PVC plates and an appropriate concentration of MoAb-G6 and AM was added in a volume of 50 μl. The assay is performed in TIS medium (RMPI 1640 plus 10 μg/ml transferrin, 10 μg/ml insulin and 3×10^−8M sodium selenite). After 5 days growth at 37° C., 5% CO2, in a humid incubator, the dye and solubilization solutions were added from the Promega Proliferation Assay (Madison, Wis.), which is a variation of the MTT assay (Carmichael, Y. F., et al., Cancer Res. 47:943-946 (1987)). The Biorad Microplate Manager plate reader and software was used to determine the change in number of viable cells from dye reduction measured by absorbance at 570 nm.

E. coli = assay: Microdilutional timed kill assay, E. coli; format: cell-based, Escherichia coli
Description: (§1) Inhibition of growth of E. coli was assessed in a microdilutional timed kill assay. (See FIG. 22) Bacteria and Candida albicans were grown overnight on trypticase soy agar (TSA) and Sobouraud dextrose agar (SDA) plates, respectively, were suspended into RPMI-1640 medium (Bio-Whittaker) and adjusted to a final concentration of 8×10^3 cfu/ml in […] in plastic microdilution trays. AM-related peptides, magainins, and albumin were added in equimolar concentrations ranging from 8 μM to 300 μM. Plates were incubated at 37° C. with gentle agitation over 24 hours. At 6 hr and 24 hr time points, 10 to […] aliquots from each well were quantitatively cultured by serial 100-fold dilutions onto TSA and SDA plates.

P. aeruginosa = assay: Micro-/macrodilution timed kill assay, P. aeruginosa; format: cell-based, Pseudomonas aeruginosa; settings: 24 hours exposure compared with 6 hours incubation
Description: as §1, with “AM-related peptides, magainins, and albumin were added in equimolar concentrations ranging from 8 μM to 300 μM.” left out
Data were compiled from six experiments. Macrodilution assays were performed in 12×75 mm borosilicate glass tubes. Organisms were grown and harvested, as described in Roilides, E., et al., J Infect Dis. 163:579 (1991), and adjusted to a final inoculum concentration of 8×10^3 cfu/ml in 400 μl. […] Tubes were incubated at 37° C. with gentle agitation over 24 hours. At 6 and 24 hour time points, 100 μl aliquots from each tube were quantitatively cultured by serial 100-fold dilutions onto TSA and SDA plates.

C. albicans = assay: Germination assay, C. albicans; format: cell-based, Candida albicans
Description: Data were compiled from 11 experiments. Germination was determined by incubating colonies of C. albicans that were harvested from an overnight growth on SDA and suspended on RPMI-1640 containing concentrations of AM from 8 to 85 μM. Organisms were incubated at 37° C. and germination was measured at 2 h and 4 h by reading 100 to 200 organisms per concentration per time point in each experiment. Percent germination was assessed as the proportion of blastoconidia of C. albicans bearing the characteristic parallel-walled tubular element to the total number of blastoconidia.

[1] = Oral glucose tolerance test in nonanesthetized rats; format: in vivo, Sprague-Dawley rats
Description: Glucose tolerance tests were performed on Sprague-Dawley rats (250 to 300 g) in the presence (◯) or absence (●) of AM. […] Glucose tolerance methods have been published previously (Brown, et al., Proc. Soc. Exp. Biol. Med. 150, 557 (1975)). Six rats were administered a glucose solution (400 mg/100 g body weight) via gastric intubation. Ocular blood samples were collected at intervals following glucose loading, and glucose concentration was determined by a calorimetric assay (Sigma). Blood insulin levels were determined on the same samples by radioimmunoassay (Amersham). Three days later, the same rats received 1 μL, of AM (60 μM) per g body weight through intravenous injection and tolerance tests were repeated. Data are means±standard deviations for the six animals. Two-tailed Student's test was performed to determine statistical significance. (*) indicates statistical significance (p<0.01).

Isoelectric point = format: physicochemical

In the case of `CC[C@H](C)[C@H](NC(=O)[C@H](CCC(N)=O)NC(=O)[C@H](Cc1c[nH]cn1)NC(=O)[C@H](C)NC(=O)[C@H](CC(C)C)NC(=O)[C@H](CCCCN)NC(=O)[C@H](CCC(N)=O)NC(=O)[C@@H](NC(=O)[C@@H](NC(=O)[C@@H]1CSSC[C@H](NC(=O)CNC(=O)[C@H](Cc2ccccc2)NC(=O)[C@H](CO)NC(=O)[C@H](CCCNC(=N)N)NC(=O)[C@H](CC(C)C)NC(=O)CNC(=O)[C@H](CCC(N)=O)NC(=O)[C@H](Cc2ccccc2)NC(=O)[C@H](CC(N)=O)NC(=O)[C@H](CC(N)=O)NC(=O)[C@H](CCSC)NC(=O)[C@H](CO)NC(=O)[C@H](CCC(N)=O)NC(=O)[C@H](CCCNC(=N)N)NC(=O)[C@@H](N)Cc2ccc(O)cc2)C(=O)N[C@@H](CCCNC(=N)N)C(=O)N[C@@H](Cc2ccccc2)C(=O)NCC(=O)N[C@@H]([C@@H](C)O)C(=O)N1)[C@@H](C)O)C(C)C)C(=O)N[C@@H](Cc1ccc(O)cc1)C(=O)N[C@@H](CCC(N)=O)C(=O)N[C@@H](Cc1ccccc1)C(=O)N[C@H](C(=O)N[C@@H](CC(=O)O)C(=O)N[C@@H](CCCCN)C(=O)N[C@@H](CC(=O)O)C(=O)N[C@@H](CCCCN)C(=O)N[C@@H](CC(=O)O)C(=O)N[C@@H](CC(N)=O)C(=O)N[C@H](C(=O)N[C@@H](C)C(=O)N1CCC[C@H]1C(=O)N[C@@H](CCCNC(=N)N)C(=O)N[C@@H](CO)C(=O)N[C@@H](CCCCN)C(=O)N[C@H](C(=O)N[C@@H](CO)C(=O)N1CCC[C@H]1C(=O)N[C@@H](CCC(N)=O)C(=O)NCC(=O)N[C@@H](Cc1ccc(O)cc1)C(N)=O)[C@@H](C)CC)C(C)C)[C@@H](C)O` [AM], the “growth suppression by synthetic AM alone” value (MCF-7; AM 10 μM (FIG. 12B)) is reported as “≈ 10%”, the “reversal of MoAb-G6 growth inhibition by exogenous AM” value (MCF-7; MCF-7) is reported as “abrogated” and the “activity against E. coli” value (E. coli; after 6 hours of incubation) is reported as “activity”. For the same compound, the “growth inhibitory activity against E. coli, comparative” value (E. coli; microdilution, 6 hours, FIG. 22) was “higher growth inhibitory activity than albumin”, the “antimicrobial activity against P. aeruginosa, 24 hours versus 6 hours” value (P. aeruginosa) was “greater antimicrobial activity” and the “suppression of germination of C. albicans, 2 hours” value (C. albicans; 2 hours incubation) was “non-significant trend in the suppression of germination; also recorded: not significant”. The “inhibition of germination of C. albicans, 4 hours” value (C. albicans; increasing concentrations of AM (8 to 85 μM), 4 hours incubation) was “significant inhibition of germination”, the “insulin levels versus control” value ([1]; 20 min after intravenous injection of AM) was “Significant differences” and the “duration of block of insulin secretion” value ([1]; after intravenous injection of AM (1 μL of 60 μM per g body weight)) was “at least 20 min”. For the same compound, the “levels of circulating glucose versus control” value ([1]; after intravenous injection of AM, 1 h) was “significantly higher; also recorded: highly significant” and the isoelectric point (Isoelectric point) was 9.7 and 10.2.
